# Source: patent US20070166547A1, “Use of a layer consisting of hydrophobic linear, or two-dimensional polycyclic aromatics as a barrier layer or an encapsulation and electric components constructed with a layer of this type and comprising organic polymers” (priority 2003, published 2007)
# Experiments:
# plasma hemostasis = assay: Partial activated thromboplastin time (PATT) after intravenous administration; format: in vivo, rabbit; conditions: for effect on the PATT (overall): doses 15.0, 30.0, 60.0 mg/kg
# Protocol: The investigations were performed on 72 rabbits of the “Chinchilla” breed with a mass of 2.5±0.3 kg, who were administered which solutions of compounds 2, 15, 21, 37 in doses of 15, 30 and 60 mg/kg intravenously. The experiments included the thrombin-test (series No. 7300) and the coagulability-test (series No. 5000) purchased from the scientific-and-production association (SPA) “Renam”, thromboplastin (series No. 240600) and calcium chloride purchased from the SPA “MedioLab”
# The static parameters of the blood and plasma coagulation (partial activated thromboplastin time, thrombin time, maximum coagulation activity (test for auto coagulation) were determined using the Behnk Electronic coagulometer (Germany). The operating principle of this instrument is based on the fact that the formed blood clot breaks the contacts of the pulse counter in the flask-pin circuit, said pin permanently oscillating in a vertical plane. The moment of formation of the clot is registered by stopping the stop watch hand.
# The measurements were effected at a constant temperature of 37° C. maintained by a temperature control unit.
# Compounds 2, 15, 21, 37 according to the invention at a concentration of 15, 30 and 60 mg/kg were introduced to the above experimental animals intravenously, and their blood samples were taken off 15, 30, 60 and 120 minutes after the administration.
# The blood plasma samples deprived of thrombocytes obtained as described above in an amount of 0.1 ml were put in a coagulometer flask and heated for 1 minute at 37° C., then 0.1 ml of 0.277% solution of calcium chloride was added and the blood clotting time was registered. The coagulation time T in seconds of the control plasma and plasma obtained after intravenous administration after 15, 30, 60 and 120 minutes were compared.
# [1] = test system: aggregation of thrombocytes; assay: ADP-induced aggregation of thrombocytes after intravenous administration (in vivo); parameters: species or system rabbit
# Protocol: The experiments were carried out on male rabbits of the “Chinchilla” breed having a mass of 2.7±0.3 kg. 18-24 hours prior to the experiment they were deprived of feed while preserving free access to water.
# To obtain plasma enriched with thrombocytes, blood was taken from a cut of a marginal vein of the rabbit ear, the sample was stabilized with 3.8% of sodium citrate solution in a ratio of 9:1 and centrifuged at 200 g (1000 rev/min) for 10 minutes. The top supernatant layer enriched with thrombocytes was transferred by an automatic dropper into a silicone test tube and kept at 37° C. The plasma enriched with thrombocytes contained, on the average, […]. If this content exceeded the specified 3×10^8 blood platelets in 1 liter, this sample was diluted to the necessary concentration with plasma deprived of thrombocytes, which was obtained by centrifuging blood at 650 g during 10 minutes.
# The measurements of the optical density of the samples were made on two-channel aggregometer of the “Chronolog” Company (USA). A flask containing 490 mkl of plasma rich with thrombocytes was placed in a device, into which a magnetic agitator covered with Teflon was lowered. The index of maximum amplitude of aggregation (MA) in percent of a fall of the plasma optical density under effect of the aggregation inductor was recorded. The control index MA of plasma was compared with the MA of plasma incubated for 3 minutes with different concentrations of the compounds: from 10^−3 to 10^−7 in vitro experiments or with plasma obtained 15, 30, 60 and 120 minutes after intravenous administration of different doses of the compounds in vivo experiments.
# The process of aggregation of thrombocytes was recorded with the help of a computer; on the monitor screen the there were depicted curves reflecting changes of the optical density of the plasma enriched which was taken as a standard 100% compared to the optical density of the non-thrombocyte plasma taken for 0% content of thrombocytes.
# The antiaggregative capability of compounds 2, 15, 21, 37, according to the invention was tested in experiments in vivo. Introduced to the test animals intravenously were an aggregation inductor ADP at a concentration of 10^−5 M was and then the compounds according to the invention. The doses of the compounds were in a range from 15 to 60 mg/kg.
# For leveling the different effects of the compounds in different days due the ambient temperature, humidity and other parameters, 2 animals of each series were taken for experiments every day. Under “series” there is understood a group of 6 animals used for studying one of the doses of the compounds.
# The blood for obtaining plasma enriched with thrombocytes was taken from marginal vein of the rabbit ear: in the control group—directly before introducing the tested compounds; in investigated groups—15 minutes after introducing these compounds and then after 30, 60, 120 minutes and so on up to the moment when the effect of suppression of aggregation disappeared.
# The quantity of thrombocytes was counted before the experiment and at the end thereof in each plasma sample.
# [2] = test system: indicator enzymes in blood plasma; assay: Morphine abstinence model: indicator enzymes AST, ALT, γ-GTP in blood plasma; format: in vivo, rats Wistar; conditions: for ALT, Ci, mE/l, Control + compound / AST, Ci, mE/l, Control + compound / γ-GTP, Ci, mE/l, Control + compound: compound alone 20.0 mg/kg intramuscularly; for ALT, Ci, mE/l, control + Morphine + Compound / AST, Ci, mE/l, control + Morphine + Compound / γ-GTP, Ci, mE/l, control + Morphine + Compound: morphinized rats then compound 20.0 mg/kg intramuscularly
# Protocol: The experiments were carried out on rats in series of 7 animals on each compound according to the invention. Non-morphinized animal with not administered with compounds according to the invention were used as a control group. […] Then the rats were decapitated, the blood from somnolent arteries was collected in test tubes with solution EDTA as an anticoagulant, centrifuged at 1500 g for 15 minutes at 4° C.
# To estimate possible hepatoprotective action of the compounds according to the invention under conditions of development of an oxidizing stress in the liver cells, effect of these compounds on the most important biochemical blood indexes, in particular, on the content in blood plasma of indicator enzyme of aspartateaminotransferase (AST), alanineaminotransferase (ALT), γ-glutamiletranspeptidase (γ-GTP) was investigated. The content of enzymes was estimated by their catalyzing activity in blood plasma.
# The activity of AST, ALT and γ-GTP was determined by means of diagnostic sets DiaSys, Germany.
Structure (SMILES),"T, s after 15 minutes (PATT) (plasma hemostasis; dose 15.0 mg/kg intravenously) [s]","T, s after 30 minutes (PATT) (plasma hemostasis; dose 15.0 mg/kg intravenously) [s]","T, s after 60 minutes (PATT) (plasma hemostasis; dose 15.0 mg/kg intravenously) [s]","T, s after 120 minutes (PATT) (plasma hemostasis; dose 15.0 mg/kg intravenously) [s]","T, s after 15 minutes (PATT) (plasma hemostasis; dose 30.0 mg/kg intravenously) [s]","T, s after 30 minutes (PATT) (plasma hemostasis; dose 30.0 mg/kg intravenously) [s]","T, s after 60 minutes (PATT) (plasma hemostasis; dose 30.0 mg/kg intravenously) [s]","T, s after 120 minutes (PATT) (plasma hemostasis; dose 30.0 mg/kg intravenously) [s]","T, s after 15 minutes (PATT) (plasma hemostasis; dose 60.0 mg/kg intravenously) [s]","T, s after 30 minutes (PATT) (plasma hemostasis; dose 60.0 mg/kg intravenously) [s]","T, s after 60 minutes (PATT) (plasma hemostasis; dose 60.0 mg/kg intravenously) [s]","T, s after 120 minutes (PATT) (plasma hemostasis; dose 60.0 mg/kg intravenously) [s]",effect on the PATT (overall) (plasma hemostasis),"MA, %, After 15 minutes ([1]; dose 15.0 mg/kg intravenously) [%]","MA, %, After 30 minutes ([1]; dose 15.0 mg/kg intravenously) [%]","MA, %, After 60 minutes ([1]; dose 15.0 mg/kg intravenously) [%]","MA, %, After 120 minutes ([1]; dose 15.0 mg/kg intravenously) [%]","MA, %, After 15 minutes ([1]; dose 30.0 mg/kg intravenously) [%]","MA, %, After 30 minutes ([1]; dose 30.0 mg/kg intravenously) [%]","MA, %, After 60 minutes ([1]; dose 30.0 mg/kg intravenously) [%]",further results
"O=c1[nH][nH]c(=O)c2c(Br)ncnc12.[K] [Compound 37, potassium salt of 4-bromine-pyrimido[4,5-D]-6H-pyridazine-5,8-dione]",37.0 ± 0.2,37.1 ± 0.1,37.0 ± 0.2,36.9 ± 0.1,33.1 ± 0.1,33.3 ± 0.1,33.3 ± 0.2,33.0 ± 0.4,32.5 ± 0.1,32.3 ± 0.2,32.4 ± 0.1,32.6 ± 0.3,do not affect the PATT,42.9 ± 1.6,41.9 ± 1.6,45.9 ± 1.6,48.7 ± 2.1,43.5 ± 2.0,42.0 ± 1.4,41.6 ± 1.4,"MA, %, After 120 minutes ([1]; dose 30.0 mg/kg intravenously): 58.4 ± 1.7%; MA, %, After 15 minutes ([1]; dose 60.0 mg/kg intravenously): 43.4 ± 1.8 %; MA, %, After 30 minutes ([1]; dose 60.0 mg/kg intravenously): 42.4 ± 0.7 %; MA, %, After 60 minutes ([1]; dose 60.0 mg/kg intravenously): 46.2 ± 2.0%; MA, %, After 120 minutes ([1]; dose 60.0 mg/kg intravenously): 47.3 ± 1.7%; ALT, Ci, mE/l, Control + compound [2]: 113.84 ± 2.0 mE/l; AST, Ci, mE/l, Control + compound [2]: 174.82 ± 4.91 mE/l; γ-GTP, Ci, mE/l, Control + compound [2]: 8.14 ± 2.64 mE/l; ALT, Ci, mE/l, control + Morphine + Compound [2]: 120.84 ± 5.20 mE/l; AST, Ci, mE/l, control + Morphine + Compound [2]: 193.58 ± 14.18 mE/l; γ-GTP, Ci, mE/l, control + Morphine + Compound [2]: 10.32 ± 2.67 mE/l"
"O=c1[nH][nH]c(=O)c2nccnc12.[Li] [Compound 25, lithium salt of pyrazine[2,3-d]-6H-pyridazine-5,8-dione]",–,–,–,–,–,–,–,–,–,–,–,–,–,–,–,–,–,–,–,–,"ALT, Ci, mE/l, Control + compound [2]: 115.27 ± 1.09 mE/l; AST, Ci, mE/l, Control + compound [2]: 177.34 ± 6.13 mE/l; γ-GTP, Ci, mE/l, Control + compound [2]: 7.57 ± 1.93 mE/l; ALT, Ci, mE/l, control + Morphine + Compound [2]: 121.96 ± 3.4 mE/l; AST, Ci, mE/l, control + Morphine + Compound [2]: 196.46 ± 15.34 mE/l; γ-GTP, Ci, mE/l, control + Morphine + Compound [2]: 11.37 ± 1.54 mE/l"
"Nc1ccnc2c(=O)n([C@@H]3O[C@H](CO)[C@@H](O)[C@H]3O)[nH]c(=O)c12 [Compound 2, 4-amino-7-(β-D-ribofuranosile)pyrido[2,3-d]-6H-pyridazine-5,8-dione]",37.0 ± 0.1,37.0 ± 0.2,36.9 ± 0.1,37.0 ± 0.3,32.7 ± 0.5,32.0 ± 0.1,32.2 ± 0.1,32.1 ± 0.2,32.3 ± 0.2,32.4 ± 0.1,32.3 ± 0.1,32.4 ± 0.1,do not affect the PATT,44.2 ± 2.0,42.2 ± 1.6,46.9 ± 1.7,49.2 ± 2.0,45.3 ± 2.0,43.7 ± 1.7,40.1 ± 2.2,"MA, %, After 120 minutes ([1]; dose 30.0 mg/kg intravenously): 59.7 ± 2.2%; MA, %, After 15 minutes ([1]; dose 60.0 mg/kg intravenously): 45.2 ± 1.2 %; MA, %, After 30 minutes ([1]; dose 60.0 mg/kg intravenously): 43.6 ± 2.0 %; MA, %, After 60 minutes ([1]; dose 60.0 mg/kg intravenously): 47.8 ± 1.5%; MA, %, After 120 minutes ([1]; dose 60.0 mg/kg intravenously): 48.0 ± 1.2%"
"Nc1cnc2c(=O)n([C@@H]3O[C@H](CO)[C@@H](O)[C@H]3O)[nH]c(=O)c2n1.[Na] [Compound 21, sodium salt of 3-amino-7-(β-D-ribofuranosile)pyrazine[2,3-d]-6H-pyridazine-5,8-dione]",37.1 ± 0.1,37.2 ± 0.1,36.9 ± 0.1,37.0 ± 0.2,32.8 ± 0.4,32.0 ± 0.1,32.2 ± 0.1,32.1 ± 0.1,32.0 ± 0.4,32.1 ± 0.2,32.0 ± 0.1,32.3 ± 0.2,do not affect the PATT,43.5 ± 1.7,43.3 ± 1.7,46.7 ± 1.5,49.1 ± 1.7,46.7 ± 1.9,45.4 ± 1.8,45.0 ± 1.9,"MA, %, After 120 minutes ([1]; dose 30.0 mg/kg intravenously): 60.3 ± 2.1%; MA, %, After 15 minutes ([1]; dose 60.0 mg/kg intravenously): 45.1 ± 0.9 %; MA, %, After 30 minutes ([1]; dose 60.0 mg/kg intravenously): 43.2 ± 2.0 %; MA, %, After 60 minutes ([1]; dose 60.0 mg/kg intravenously): 47.3 ± 1.6%; MA, %, After 120 minutes ([1]; dose 60.0 mg/kg intravenously): 48.3 ± 1.5%"
